Source: patent US6503759B1, “Complex combinatorial chemical libraries encoded with tags” (The Trustees of Columbia University in the City of New York, priority 1992, dated 2003)

Tested on: anti-C-myc peptide monoclonal antibody 9E10
Assay: bead staining test for binding to anti-C-myc monoclonal antibody 9E10
Details: bead-bound peptides of the 117,649 peptide library; 1:200 dilution of 9E10 ascites fluid; alkaline phosphatase-coupled goat antimouse IgG colour detection; sequence read from tags
Procedure: The anti-C-myc peptide monoclonal antibody 9E10 was prepared from ascites fluid as described in Evans et al., Mol. Cell Biol., 5, 3610-3616 (1985) and Munro and Pelham, Cell, 48, 899-907 (1987). To test beads for binding to 9E10, beads were incubated in TBST [20 mM Tris-HCl (pH 7.5), 500 mM NaCl and 0.05% Tween-20] containing 1% bovine serum albumin (BSA) to block non-specific protein binding sites. The beads were then centrifuged, resuspended in a 1:200 dilution of 9E10 ascites fluid in TBST+1% BSA and incubated overnight at 4° C. Beads were subsequently washed three times in TBST and incubated for 90 min. at room temperature in alkaline phosphatase-coupled goat antimouse IgG antibodies (Bio-Rad Laboratories), diluted 1:3000 in TBST+1% BSA. After washing the beads twice in TBST and once in phosphatase buffer (100 mM Tris-HCl, pH 9.5, 100 mM NaCl and 5 mM MgCl2), the beads were incubated 1 hr at room temperature in phosphatase buffer containing one one-hundredth part each of AP Color Reagents A & B (Bio-Rad Laboratories). To stop the reaction, the beads were washed twice in 20 mM sodium EDTA, pH 7.4. Solution phase affinities between 9E10 and various peptides were determined by a modification of the competitive ELISA assay described by Harlow et al., Antibodies: a Laboratory Manual, 570-573, Cold Spring Harbor Press, Cold Spring Harbor, N.Y.

beads stained on exposure to the anti-C-myc monoclonal antibody: stained
Sequence: EQKLISEEDL
